Values after ≈ are worked out from the molar mass of the structure shown. Like-named read-outs stand apart in the source and are kept apart here.
Experiments:
[1] = tested on: Pseudomonas aeruginosa A3; experiment: MIC, standard serial dilution on nutrient agar; type: cell-based
[2] = tested on: Escherichia coli K-12 ML 1629; experiment: MIC, standard serial dilution on nutrient agar; type: cell-based; details: K12ML1629, 37° C., 18 hours
[3] = tested on: Staphylococcus epidermides 109; experiment: MIC, standard serial dilution on nutrient agar; type: cell-based; details: Staphylococcus, 109, 18 h
[4] = tested on: Staphylococcus aureus APOI; experiment: MIC, standard serial dilution on nutrient agar; type: cell-based; details: Staphylococcus aureus, 18 h
Providencia Pv 37 = experiment: MIC, standard serial dilution on nutrient agar; type: cell-based; details: PV37, 37° C., 18 hours
Proteus rettgeri AUB = experiment: MIC, standard serial dilution on nutrient agar; type: cell-based; details: Providencia rettgeri
Pyocyanique = experiment: MIC, standard serial dilution on nutrient agar; type: cell-based
Serratia 7 = experiment: MIC, standard serial dilution on nutrient agar; type: cell-based
resistant bacteria [5] = details: in words, from Table 1
Protocol: The minimum inhibitory concentrations (mcg/ml) of the new compounds of this invention against various microorganisms were determined according to a standard serial dilution method using nutrient agar incubation medium at 37° C., the estimation being made after 18 hours incubation. For comparison purpose, the MIC. of kanamycin A, amikacin and dibekacin was also determined under the same test conditions.

Erwinia 7-22 = experiment: MIC, standard serial dilution on nutrient agar; type: cell-based; details: 722, 37° C., 18 hours
Serratia CAT = experiment: MIC, standard serial dilution on nutrient agar; type: cell-based; details: Serratia, 18 h
Klebsiella THO = experiment: MIC, standard serial dilution on nutrient agar; type: cell-based; details: Klebsiella, 18 h
[6] = tested on: Staphylococcus aureus MS 9610; experiment: MIC, standard serial dilution on nutrient agar; type: cell-based; details: Staphylococcus aureus, MS9610, 18 h
Providencia 19 = experiment: MIC, standard serial dilution on nutrient agar; type: cell-based
[7] = tested on: Klebsiella pneumoniae 22 #3038; experiment: MIC, standard serial dilution on nutrient agar; type: cell-based
Providencia ZAO = experiment: MIC, standard serial dilution on nutrient agar; type: cell-based; details: Providencia, 18 h
Proteus vulgaris BAC = experiment: MIC, standard serial dilution on nutrient agar; type: cell-based; details: Proteus vulgaris, 18 h
Sarcina lutea PCI 1001 = experiment: MIC, standard serial dilution on nutrient agar; type: cell-based; details: Micrococcus luteus
Enterobacter HAU = experiment: MIC, standard serial dilution on nutrient agar; type: cell-based
[8] = tested on: Staphylococcus aureus 209P; experiment: MIC, standard serial dilution on nutrient agar; type: cell-based; details: Staphylococcus aureus, 209P, 18 h
[9] = tested on: Staphylococcus aureus MS 9883; experiment: MIC, standard serial dilution on nutrient agar; type: cell-based
Serratia BOT = experiment: MIC, standard serial dilution on nutrient agar; type: cell-based; details: Serratia, 18 h
Escherichia coli K-12 = experiment: MIC, standard serial dilution on nutrient agar; type: cell-based; details: K12, 37° C., 18 hours
Enterobacter 666 = experiment: MIC, standard serial dilution on nutrient agar; type: cell-based; details: 37° C., 18 hours
Klebsiella BRIA = experiment: MIC, standard serial dilution on nutrient agar; type: cell-based; details: Klebsiella, 18 h
Klebsiella HOU = experiment: MIC, standard serial dilution on nutrient agar; type: cell-based
resistant bacteria [10] = details: in words, background art; cited from earlier work
[11] = acute toxicity, intravenous injection in mice; type: in vivo; details: mouse, in vivo
Excerpt: (§1) Therefore, the new compounds of this invention are useful in therapeutic treatment of infections by various gram-negative and gram-positive bacteria, including the resistant bacterial strains. […] Accordingly, the low toxicity of the above new compounds of general formula (I) according to this invention is note-worthy, and the low toxicity of the new compounds of this invention with retaining the antibacterial activity substantially as high as that of the above-described known drugs will facilitate the clinical use of the new compounds, fulfilling the modern demand for providing efficient and less toxic drugs.

mice = experiment: acute toxicity, intravenous injection in mice; type: in vivo
Excerpt: as §1

[12] = Pseudomonas aeruginosa, A3, 18 h

| Compound | MIC [2] [µg/mL] | MIC [3] [µg/mL] | MIC [4] [µg/mL] | MIC (Providencia Pv 37) [µg/mL] | MIC (Erwinia 7-22) [µg/mL] | MIC (Serratia CAT) [µg/mL] | MIC (Klebsiella THO) [µg/mL] | MIC [6] [µg/mL] | MIC (Providencia ZAO) [µg/mL] | MIC (Proteus vulgaris BAC) [µg/mL] | MIC [8] [µg/mL] | MIC (Serratia BOT) [µg/mL] | MIC (Escherichia coli K-12) [µg/mL] | MIC (Enterobacter 666) [µg/mL] | MIC (Klebsiella BRIA) [µg/mL] | MIC [1, 12] [µg/mL] | MIC (Proteus rettgeri AUB; 18 h) [µg/mL] | MIC (Pyocyanique; 18 h) [µg/mL] | MIC (Serratia 7; Serratia, 7, 18 h) [µg/mL] | MIC (Providencia 19; Providencia, 19, 18 h) [µg/mL] | further results |
| --- | --- | --- | --- | --- | --- | --- | --- | --- | --- | --- | --- | --- | --- | --- | --- | --- | --- | --- | --- | --- | --- |
| NCCC(O)C(=O)NC1CC(N)C(OC2OC(CN)CCC2O)C(O)C1OC1OC(CO)C(O)C(N)C1O [Compound No. 2, 1-N-((S)-2-hydroxy-4-aminobutyryl)-3',4'-dideoxykanamycin A] | 1.56 (≈ 2.82 µM) | 0.78 (≈ 1.41 µM) | 0.78 (≈ 1.41 µM) | 6.25 (≈ 11.3 µM) | 0.78 (≈ 1.41 µM) | 6.25 (≈ 11.3 µM) | 1.56 (≈ 2.82 µM) | 1.56 (≈ 2.82 µM) | 6.25 (≈ 11.3 µM) | 1.56 (≈ 2.82 µM) | 1.56 (≈ 2.82 µM) | 6.25 (≈ 11.3 µM) | 1.56 (≈ 2.82 µM) | 0.78 (≈ 1.41 µM) | 1.56 (≈ 2.82 µM) |  |  |  |  |  | MIC ([1]; Pseudomonas aeruginosa A3, nutrient agar, 37° C., 18 hours, read-out: MIC.): 3.12 µg/mL (≈ 5.64 µM); MIC (Proteus rettgeri AUB; Proteus rettgeri AUB, nutrient agar, 37° C., 18 hours, read-out: MIC.): 3.12 µg/mL (≈ 5.64 µM); MIC (Pyocyanique; Pyocyanique, nutrient agar, 37° C., 18 hours, read-out: MIC.): 12.5 µg/mL (≈ 22.6 µM); MIC (Serratia 7; Serratia 7, nutrient agar, 37° C., 18 hours, read-out: MIC.): 3.12 µg/mL (≈ 5.64 µM); antibacterial activity against various resistant bacteria (resistant bacteria [5]): higher antibacterial activity against the various resistant bacteria than amikacin; MIC (Providencia 19; Providencia 19, nutrient agar, 37° C., 18 hours, read-out: MIC.): 3.12 µg/mL (≈ 5.64 µM); MIC ([7]; Klebsiella pneumoniae 22 #3038, nutrient agar, 37° C., 18 hours, read-out: MIC.): 3.12 µg/mL (≈ 5.64 µM); MIC (Sarcina lutea PCI 1001; PCI1001, Sarcina lutea PCI 1001, nutrient agar, 37° C., 18 hours, read-out: MIC.): 3.12 µg/mL (≈ 5.64 µM); MIC (Enterobacter HAU; Enterobacter HAU, nutrient agar, 37° C., 18 hours, read-out: MIC.): 12.5 µg/mL (≈ 22.6 µM); MIC ([9]; MS9883, Staphylococcus aureus MS 9883, nutrient agar, 37° C., 18 hours, read-out: MIC.): 3.12 µg/mL (≈ 5.64 µM); MIC (Klebsiella HOU; Klebsiella HOU, nutrient agar, 37° C., 18 hours, read-out: MIC.): 3.12 µg/mL (≈ 5.64 µM) |
| NC[C@@H]1CC[C@@H](N)[C@@H](O[C@H]2[C@H](O)[C@@H](O[C@H]3O[C@H](CO)[C@@H](O)[C@H](N)[C@H]3O)[C@H](N)C[C@@H]2N)O1 [Dibekacin, 3',4'-dideoxykanamycin B] | 1.56 (≈ 3.45 µM) | 0.78 (≈ 1.73 µM) | 0.78 (≈ 1.73 µM) | > 100 | > 100 | 6.25 (≈ 13.8 µM) | 1.56 (≈ 3.45 µM) |  | > 100 | 12.5 (≈ 27.7 µM) | 0.78 (≈ 1.73 µM) | 25 (≈ 55.4 µM) | 1.56 (≈ 3.45 µM) | > 100 | > 100 | 0.78 (≈ 1.73 µM) | 100 (≈ 221 µM) | 6.25 (≈ 13.8 µM) | > 100 | > 100 | MIC ([7]; Klebsiella pneumoniae, 18 h): > 100 µg/mL; MIC (Sarcina lutea PCI 1001; PCI1001, 18 h): 25 µg/mL (≈ 55.4 µM); activity against resistant bacteria (resistant bacteria [10]): remarkably active against a wide variety of resistant bacteria; LD50 [11]: 80 to 120 mg/kg; MIC (Enterobacter HAU; Enterobacter, 18 h): > 100 µg/mL; MIC (Klebsiella HOU; Klebsiella, 18 h): > 100 µg/mL |
| NCC1OC(OC2C(N)CC(N)C(OC3OC(CO)C(O)C(N)C3O)C2O)C(O)C(O)C1O (centres unmarked) [Kanamycin A] | > 100 | 25 (≈ 51.6 µM) | 12.5 (≈ 25.8 µM) | > 100 | > 100 | > 100 | > 100 | 6.25 (≈ 12.9 µM) | > 100 | > 100 | 3.12 (≈ 6.44 µM) | 6.25 (≈ 12.9 µM) | 3.12 (≈ 6.44 µM) | > 100 | > 100 | 25 (≈ 51.6 µM) | > 100 | 50 (≈ 103 µM) | > 100 | > 100 | MIC ([7]; Klebsiella pneumoniae, 18 h): > 100 µg/mL; MIC (Sarcina lutea PCI 1001; PCI1001, 18 h): 12.5 µg/mL (≈ 25.8 µM); MIC (Enterobacter HAU; Enterobacter, 18 h): > 100 µg/mL; MIC ([9]; Staphylococcus aureus, MS9883, 18 h): 6.25 µg/mL (≈ 12.9 µM); MIC (Klebsiella HOU; Klebsiella, 18 h): > 100 µg/mL |
| gentamicin |  |  |  |  |  |  |  |  |  |  |  |  |  |  |  |  |  |  |  |  | LD50 value (acute toxicity) (mice): 80 to 120 mg/kg |

— patent US4298727A, “3',4'-Dideoxykanamycin A and 1-N-(S)-α-hydroxy-ω-aminoalkanoyl) derivatives thereof” (Zaidan Hojin Biseibutsu Kagaku KenkyuKai, priority 1979, dated 1981)
